Laboratory results from US8507472B2 (priority 2010, dated 2013).
Like-named read-outs stand apart in the source and are kept apart here.

How the values were obtained:
Botrytis cinerea = assay: Botrytis test (bean)/protective; format: in vivo; conditions: 100 ppm active compound, protective, evaluation 2 days after inoculation
Method in brief: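 Young bean plants sprayed at the stated rate with compound in acetone/dimethylacetamide plus alkylaryl polyglycol ether emulsifier, diluted in water. Once dry, each leaf got 2 agar pieces colonized by Botrytis cinerea; kept dark at about 20° C., 100% humidity. Infected area scored after 2 days; 0% = control, 100% = no infection.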

Pyrenophora teres = Pyrenophora teres test (barley)/protective; format: in vivo
Method in brief: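 Protective test: young barley plants sprayed at the stated rate with compound in DMF/alkylaryl polyglycol ether diluted with water, inoculated with P. teres spores 1 day later, kept 48 h at 100% rel. humidity and 22° C., then greenhouse at 80% and 20° C. Efficacy scored 7-9 days post-inoculation (0% = control, 100% = no infection).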

[1] = system: Fusarium nivale (var. majus); assay: Fusarium nivale (var. majus) test (wheat)/protective; format: in vivo; conditions: 1000 ppm active compound, protective, evaluation 5 days after inoculation
Experimental: (§1) Solvent: 49 parts by weight of N,N-dimethylacetamide
(§2) Emulsifier: 1 part by weight of alkylaryl polyglycol ether
(§3) To produce a suitable preparation of active compound, 1 part by weight of active compound is mixed with the stated amounts of solvent and emulsifier, and the concentrate is diluted with water to the desired concentration.
(§4) To test for protective activity, young plants are sprayed with the active compound preparation at the stated application rate.
After the spray coating has dried on, the plants are sprayed with spores of a spore suspension of Fusarium nivale (var. majus).
The plants are placed in a greenhouse chamber under a translucent incubation hood at 10° C. and 100% relative atmospheric humidity.
Evaluation is carried out 5 days after the inoculation. 0% means an efficacy which corresponds to that of the control, whereas an efficacy of 100% means that no infection is observed.

DON/AcDON production = assay: microbe, parasite or virus in culture; format: cell-based, Fusarium graminearum; conditions: 7 days at 28° C.
Septoria tritici = Septoria tritici test (wheat)/protective; format: in vivo
Experimental: as §1, §2
To produce a suitable preparation of active compound, 1 part by weight of active compound is mixed with the stated amount of solvent and emulsifier, and the concentrate is diluted with water to the desired concentration.
To test for protective activity, young plants are sprayed with the active compound preparation at the stated application rate. After the spray coating has dried on, the plants are sprayed with a spore suspension of Septoria tritici. The plants remain in an incubation cabin at 20° C. and 100% relative atmospheric humidity for 48 hours. The plants are then placed under a translucent hood at 15° C. and 100% relative atmospheric humidity for a further 60 hours.
The plants are placed in a greenhouse at a temperature of about 15° C. and a relative atmospheric humidity of 80%.
Evaluation is carried out 21 days after the inoculation. 0% means an efficacy which corresponds to that of the control, whereas an efficacy of 100% means that no infection is observed.

Phytophthora infestans = format: in vivo
Puccinia triticina = Puccinia triticina test (wheat)/protective; format: in vivo
Experimental: Solvent: 49 parts by weight of […]
as §2, §3, §4
After the spray coating has dried on, the plants are sprayed with spores of a spore suspension of Puccinia triticina. The plants remain in an incubation cabin at 20° C. and 100% relative atmospheric humidity for 48 hours.
The plants are placed in greenhouse at a temperature of about 20° C. and a relative atmospheric humidity of about 80%.
Evaluation is carried out 8 days after the inoculation. 0% means an efficacy which corresponds to that of the control, whereas an efficacy of 100% means that no infection is observed.

Fusarium graminearum [2] = format: in vivo
Uromyces appendiculatus = assay: Uromyces test (bean)/protective; format: in vivo
Method in brief: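 Young bean plants sprayed with compound formulated in acetone/dimethylacetamide with emulsifier, inoculated with Uromyces appendiculatus spores after drying, held 1 day at ~20 °C and 100% humidity, then greenhouse ~21 °C, ~90% humidity. Efficacy scored 10 days post-inoculation, 0% = untreated control, 100% = no infection.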

Alternaria solani = assay: Alternaria test (tomato)/protective; format: in vivo
Method in brief: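 Young tomato plants were sprayed with compound (DMF/emulsifier formulation diluted in water) and inoculated with A. solani spores 1 day later. Plants were kept 24 h at 100% RH and 22 °C, then at 96% RH and 20 °C. Efficacy was scored 7 days post-inoculation, where 0% equals untreated control and 100% means no infection.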

Fusarium graminearum [3] = assay: microbe, parasite or virus in culture; format: cell-based
Sphaerotheca fuliginea = assay: Sphaerotheca test (cucumber)/protective; format: in vivo
Method in brief: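 Protective test: young cucumber plants sprayed with compound (DMF/alkylaryl polyglycol ether concentrate diluted in water) at the stated rate, inoculated with S. fuliginea spores 1 day later, then kept in greenhouse at 23 °C, 70% RH. Efficacy scored 7 days post-inoculation; 0% equals untreated control, 100% means no infection.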

Leptosphaeria nodorum = Leptosphaeria nodorum test (wheat)/protective; format: in vivo
Method in brief: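 Young wheat plants were sprayed protectively, then inoculated 1 day later with L. nodorum spores and held 48 h at 100% humidity and 22° C. They were then kept in a greenhouse at 90% humidity and 22° C. Efficacy was scored 7-9 days post-inoculation, where 0% equals control and 100% means no infection.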

[4] = log P determination by HPLC retention times (alkan-2-one calibration)
Venturia inaequalis = assay: Venturia test (apple)/protective; format: in vivo; conditions: 100 ppm active compound, protective, evaluation 10 days after inoculation
Method in brief: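 Young apple plants sprayed protectively with compound (in acetone/dimethylacetamide with alkylaryl polyglycol ether, diluted in water) at the stated rate, then inoculated with V. inaequalis conidia once dry. Held 1 day at ~20° C, 100% humidity, then greenhouse ~21° C, ~90% humidity; efficacy scored 10 days post-inoculation (0% = control, 100% = no infection).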

Pyricularia oryzae = conditions: in vivo
Cochliobolus miyabeanus = assay: Cochliobolus test (rice)/protective; format: in vivo; conditions: 250 ppm active compound, protective, evaluation 4 days after inoculation
Rhizoctonia solani = assay: Rhizoctonia test (rice)/protective; format: in vivo; conditions: 250 ppm active compound, protective, evaluation 4 days after inoculation
Experimental: Solvent: 28.5 parts by weight of acetone
Emulsifier: 1.5 parts by weight of alkylaryl polyglycol ether
To produce a suitable preparation of active compound, 1 part by weight of active compound is mixed with the stated amount of solvent, and the concentrate is diluted with water and the stated amount of emulsifier to the desired concentration.
To test for protective activity, young rice plants are sprayed with the active compound preparation at the stated application rate. 1 day after the treatment, the plants are inoculated with hyphae of Rhizoctonia solani. The plants are then placed in a greenhouse at 100% relative atmospheric humidity and 25° C.
Evaluation is carried out 4 days after the inoculation. 0% means an efficacy which corresponds to that of the control, whereas an efficacy of 100% means that no infection is observed.

Gibberella zeae = conditions: in vivo
[5] = 500 ppm active compound, tomato, protective, evaluation 7 days after inoculation

SMILES: COC(=O)Nc1cc(-c2c(-c3ccc(F)cc3)nn3c2CCCC3)ccn1 [Example 26, Methyl{4-[2-(4-fluorophenyl)-4,5,6,7-tetrahydropyrazolo[1,5-a]pyridin-3-yl]-pyridin-2-yl}carbamate]
- efficacy in % (Botrytis cinerea): 93%
- efficacy in % (Pyrenophora teres; 500 ppm active compound, barley, protective, evaluation 7-9 days after inoculation): 95%
- efficacy in % [1]: 86%
- inhibition at 50 µM (DON/AcDON production; Fusarium graminearum, 168 h): 98%
- efficacy in % (Septoria tritici; 1000 ppm active compound, wheat, protective, evaluation 21 days after inoculation): 86%
- efficacy in % (Phytophthora infestans; [5]): 95%
- efficacy in % (Puccinia triticina; 1000 ppm active compound, wheat, protective, evaluation 8 days after inoculation): 100%
- efficacy in % (Fusarium graminearum [2]; 1000 ppm active compound, barley, protective, evaluation 5 days after inoculation): 88%
- efficacy in % (Uromyces appendiculatus; 100 ppm active compound, bean, protective, evaluation 10 days after inoculation): 94%
- efficacy in % (Alternaria solani; [5]): 100%
- inhibition at 50 µM (Fusarium graminearum [3]; Fusarium graminearum, 72 h, read-out: % inhibition of the fungal growth of Fusarium graminearum at 50 μM): 57%
- efficacy in % (Sphaerotheca fuliginea; 500 ppm active compound, cucumber, protective, evaluation 7 days after inoculation): 98%
- efficacy in % (Leptosphaeria nodorum; 500 ppm active compound, wheat, protective, evaluation 7-9 days after inoculation): 80%
- chromatographic logP ([4]; log P(HCOOH), HCOOH, preparation examples in the text): 2.11
- chromatographic logP ([4]; log P, values marked [a] in Table 1): 2.11
- chromatographic logP ([4]; log P, values marked [b] in Table 1): 2.56
- efficacy in % (Venturia inaequalis): 93%

SMILES: CC(C)C(=O)Nc1cc(-c2c(-c3ccc(F)cc3)nn3c2CCCC3)ccn1 [Example 28]
- efficacy in % (Botrytis cinerea): 95%
- efficacy in % (Pyricularia oryzae): 90%
- efficacy in % (Cochliobolus miyabeanus): 95%
- efficacy in % (Rhizoctonia solani): 100%
- efficacy in % (Pyrenophora teres; in vivo): 100%
- efficacy in % [1]: 100%
- % inhibition of DON/AcDON at 50 μM (DON/AcDON production): 99%
- efficacy in % (Septoria tritici; in vivo): 100%
- efficacy in % (Phytophthora infestans; in vivo): 95%
- efficacy in % (Puccinia triticina; in vivo): 100%
- efficacy in % (Fusarium graminearum [2]; in vivo): 100%
- efficacy in % (Uromyces appendiculatus; in vivo): 95%
- efficacy in % (Alternaria solani; in vivo): 100%
- efficacy in % (Gibberella zeae): 85%
- % inhibition of the fungal growth of Fusarium graminearum at 50 μM (Fusarium graminearum [3]): 100%
- efficacy in % (Sphaerotheca fuliginea; in vivo): 100%
- efficacy in % (Leptosphaeria nodorum; in vivo): 90%
- efficacy in % (Venturia inaequalis): 100%

SMILES: CC(C)CC(=O)Nc1cc(-c2c(-c3ccc(F)cc3)nn3c2CCCC3)ccn1 [Example 30]
- efficacy in % (Botrytis cinerea): 100%
- efficacy in % (Pyricularia oryzae): 94%
- efficacy in % (Cochliobolus miyabeanus): 96%
- efficacy in % (Rhizoctonia solani): 100%
- efficacy in % (Pyrenophora teres; in vivo): 100%
- efficacy in % [1]: 86%
- % inhibition of DON/AcDON at 50 μM (DON/AcDON production): 99%
- efficacy in % (Septoria tritici; in vivo): 100%
- efficacy in % (Phytophthora infestans; in vivo): 80%
- efficacy in % (Puccinia triticina; in vivo): 88%
- efficacy in % (Fusarium graminearum [2]; in vivo): 88%
- efficacy in % (Uromyces appendiculatus; in vivo): 95%
- efficacy in % (Alternaria solani; in vivo): 100%
- % inhibition of the fungal growth of Fusarium graminearum at 50 μM (Fusarium graminearum [3]): 88%
- efficacy in % (Sphaerotheca fuliginea; in vivo): 95%
- efficacy in % (Leptosphaeria nodorum; in vivo): 90%
- efficacy in % (Venturia inaequalis): 99%

SMILES: O=C(Nc1cc(-c2c(-c3ccsc3)nn3c2CCCC3)ccn1)C1CC1 [Example 65]
- efficacy in % (Botrytis cinerea): 97%
- efficacy in % (Pyrenophora teres; in vivo): 95%
- efficacy in % [1]: 100%
- % inhibition of DON/AcDON at 50 μM (DON/AcDON production): 100%
- efficacy in % (Septoria tritici; in vivo): 90%
- efficacy in % (Phytophthora infestans; in vivo): 90%
- efficacy in % (Puccinia triticina; in vivo): 86%
- efficacy in % (Fusarium graminearum [2]; in vivo): 83%
- efficacy in % (Uromyces appendiculatus; in vivo): 95%
- efficacy in % (Alternaria solani; in vivo): 100%
- % inhibition of the fungal growth of Fusarium graminearum at 50 μM (Fusarium graminearum [3]): 100%
- efficacy in % (Sphaerotheca fuliginea; in vivo): 100%
- efficacy in % (Leptosphaeria nodorum; in vivo): 94%
- efficacy in % (Venturia inaequalis): 96%
